Measured values published in patent publication US10085966B2, “Compositions and methods for skin care” (Antipodean Pharmaceuticals, Inc., priority 2008, dated 2018).

What was measured:
Type in all cases: cell-based
ERK2 = experiment: UV irradiation-induced ERK2 phosphorylation in cultured human keratinocytes
Description: (§1) Ultraviolet (UV) irradiation causes skin photoaging and has been reported to activate mitogen-activated protein (MAP) kinase signal transduction pathways. (Fisher et al., 1998 J. Clin. Invest. 101:1432; Kang et al., 2003 J. Invest. Dermatol. 120:835). The mechanism of UV activation of the epidermal growth factor receptor (EGFR) in such pathways remains unknown, although a role for ROS has been implicated (Xu et al., 2006 Am. J. Pathol. 169:823; Xu et al., 2006 J. Biol. Chem. 281:27389). This Example describes an in vitro model of UV-induced signal transduction in human keratinocytes. Publications describing exemplary materials and methods that were adapted to perform these experiments include e.g., Pilcher et al., 1997 J. Cell Biol. 137:1445; Notary et al., 2000 J. Cell Biol. 149:1309; Netzel-Arnett et al., 2002 J. Biol. Chem. 277:45154; Fisher et al., 2002 Arch Dermatol. 138:1462; Kang et al., 2003 J. Invest. Dermatol. 120:835; Xu et al., 2006 Am J Pathol. 169:823; Xu et al., 2006 J Biol. Chem 281:27389.
(§2) Exposure of cultured human keratinocytes to UV irradiation activated ERK MAP kinase, as evidenced by elevated levels of phosphorylated ERK polypeptide in immunoprecipitates from UV-irradiated keratinocytes relative to untreated control keratinocytes. (FIG. 4)

human skin fibroblasts = experiment: ROS production by human skin fibroblasts in collagenase-fragmented three-dimensional collagen lattices; conditions: 1 nM, relative to controls (FIG. 2)
Description: (§3) In photoaged human skin in vivo, skin wrinkling was accompanied by elevated collagenase levels that stimulated collagen fragmentation and ROS production. This Example describes an in vitro model of skin collagen fragmentation that was created and tested for the effects of antioxidant compounds. Materials and methods for preparing three-dimensional extracellular matrix (ECM) collagen lattices, for culturing skin fibroblasts and keratinocytes thereupon, and for treating such matrices with, and characterizing the effects on them of, matrix metalloproteinases (MMPs) have been described (see, e.g., Pilcher et al., 1997 J. Cell Biol. 137:1445; Notary et al., 2000 J. Cell Biol. 149:1309; Netzel-Arnett et al., 2002 J. Biol. Chem. 277:45154; Fisher et al., 2002 Arch Dermatol. 138:1462; Kang et al., 2003 J. Invest. Dermatol. 120:835; Xu et al., 2006 Am J Pathol. 169:823; Xu et al., 2006 J Biol. Chem 281:27389).
(§4) Human skin fibroblasts were cultured in three-dimensional collagen lattices, which mimicked the dermal extracellular matrix. In intact collagen lattices, dermal fibroblasts spread by attachment to the collagen, and produced relatively low levels of the collagenase known as matrix metalloproteinase-1 (MMP1). […]

ERK1 = experiment: UV irradiation-induced ERK1 phosphorylation in cultured human keratinocytes
Description: as §1, §2

ERK MAP kinase = experiment: UV irradiation-induced activation of ERK MAP kinase in cultured human keratinocytes; conditions: pretreatment of keratinocytes with the indicated concentrations (FIG. 4)
Description: as §1, §2

[1] = test system: matrix metalloproteinase-1 (MMP1); experiment: MMP1 expression by human skin fibroblasts in collagenase-fragmented three-dimensional collagen lattices; conditions: 1 nM, relative to controls (FIG. 3)
Description: as §3, §4

[2] = exposure to MitoQ10 (FIG. 4 lower panel)
[3] = incubation of keratinocytes prior to UV irradiation (FIG. 4 upper panel)

With COC1=C(OC)C(=O)C(CCCCCCCCCC[P+](c2ccccc2)(c2ccccc2)c2ccccc2)=C(C)C1=O.CS(=O)(=O)[O-] [MitoQ10 mesylate, [10-(4,5-dimethoxy-2-methyl-3,6-dioxo-1,4-cyclohexadien-1-yl)decyl] triphenylphosphonium methanesulfonate] the “amount of Erk2 in the keratinocytes” value (ERK2; [2]) was “not altered”, the ERK2 phosphorylation (ERK2; [3]) was “significantly reduced” and the “oxidant (ROS) levels” value (human skin fibroblasts) was “significantly reduced”. For the same compound, the “amount of Erk1 in the keratinocytes” value (ERK1; [2]) was “not altered”, the ERK1 phosphorylation (ERK1; [3]) was “significantly reduced” and the “activation of ERK MAP kinase by subsequent UV irradiation” value (ERK MAP kinase) was “substantially inhibited”. For the same compound, the “matrix metalloproteinase-1 expression, MMP1 mRNA” value [1] was “significantly reduced” and the “matrix metalloproteinase-1 expression, MMP1 protein” value [1] was “significantly reduced”.
